Assay results reported in patent US9284369B2, “Inhibition of angiogenesis” (Genentech, Inc., priority 2007, dated 2016).

Assays:
[1] = system: Bv8 expression; experiment: Regulation of Bv8 gene expression in cultured mouse BMMNCs (Taqman); assay type: cell-based; conditions: for up-regulation of Bv8 in unsorted BMMNCs: 10 ng/ml, 4 hr
Protocol: RNA from tissues or cells was prepared using the RNeasy Mini Kit® (Qiagen). 50 ng total RNA per reaction was used for the real time PCR (Taqman™) analysis. For mouse/human Bv8 and EG-VEGF/Bv8 receptor 1 (PKR-1/EG-VEGFR1, R-1), testis RNA (BD Biosciences) served as control. For mouse/human EG-VEGF/Bv8 receptor 2 (PKR-2/EG-VEGFR2, R2), hypothalamus or whole brain (BD Biosciences) served as the control tissues. Reactions were run on 9600 Emulation mode of 7500 Real […] time PCR system (Applied Biosystems) and the absolute quantification with standard curve was used with Sequence Detection System (SDS) software. The expression level of each gene was further quantified against the house-keeping gene RPL19 in the same sample. To confirm the expression of VEGFR-1, VEGFR-2, EG-VEGF/Bv8 R1 and EG-VEGF/Bv8 R2 in the tumor-associated endothelial cells, standard RT-PCR was conducted using the Titan One Tube™ RT-PCR system (Roche) and the end products were checked on 2% agarose gel (Invitrogen) for the correct size. The sequence of Taqman™ primers are as follows: […]
Recombinant mouse MCP-1, MIP-1α, MIP-1β, MIP-2, bFGF, VEGF, GM-CSF, G-CSF, SDF-1 and TNFα were purchased from R&D Systems (Minneapolis, Minn.). Recombinant mouse KC, IFNγ, Bv8 (Prokineticin-2), IL-4, IL-10, IL-13, TGF-β were from PeproTech Inc. (Rocky Hill, N.J.). […] Conditioned media at 1:3 dilution were used (final FBS concentration was 0.17%). Data were normalized against total cell number. BM cells were flushed from mouse leg bones with DMEM containing 10% FBS. Cells were centrifuged at 1200 rpm for 5 min and resuspended in HBSS media containing 0.2% BSA (low endotoxin, Serologicals Corp. Norcross, Ga.). Two million cells were incubated in 24-well plates with various cytokines for 4 hr at 37° C. in a 5% CO2 incubator. Cells were then transferred in eppendorf tubes, centrifuged and lysed by RNA lysis buffer (Qiagen, Valencia, Calif.). Bv8 expression was assessed by Taqman™ with RPL19 (Ribosomal Protein L19) as the internal control gene. In some cases, CD11b+Gr1+ or CD11b−Gr1− BM cells were obtained using FACS sorting.

[2] = system: human neutrophils; experiment: Chemotaxis of peripheral blood neutrophils; assay type: cell-based; conditions: for effect on neutrophil migration: all concentrations tested, data not shown
Protocol: 10^6 cells were washed with HBSS containing 0.2% BSA before putting into transwell insert with 5 μm pore size (Corning Incorporated, Lowell, Mass.). In the lower chamber, media alone or media with various cytokines at various concentrations (maximum at 200 ng/ml) was added. After 3 hr at 37° C., cells in the lower chamber were transferred, mixed with 9 ml ZPAK solution and counted on Z2 Coulter Particle Count and Size Analyzer (Beckman Coulter, Fullerton, Calif.).

[3] = system: Bv8 expression; experiment: Regulation of Bv8 gene expression in cultured human blood and bone marrow cells (Taqman); assay type: cell-based; conditions: for Bv8 expression in monocytes and lymphocytes / induction of Bv8 expression in human neutrophils and whole bone marrow cells: 10 ng/ml, 4 hr
Protocol: RNA was prepared using the RNeasy™ Mini Kit (Qiagen). 50 ng total RNA per reaction was used for the real time PCR (Taqman) analysis. For human Bv8, testis RNA (BD Biosciences) served as control. Reactions were run on 9600 Emulation mode of 7500 Real time PCR system (Applied Biosystems, Foster City, Calif.) and the absolute quantification with standard curve was used with Sequence Detection System (SDS) software. The expression level of each gene was further quantified relative to the housekeeping gene RPL19 in the same sample. The sequences of Taqman primers are as follows: Human Bv8 forward: ATG GCA CGG AAG CTA GGA (SEQ ID NO: 10), reverse: GCAGAGCTGAAGTCCTCTTGA (SEQ ID NO: 11), probe: TGCTGCTGGACCCTTCCTAAACCT (SEQ ID NO: 12); Human RPL19 forward: CGC AAG CGC CGT GAA (SEQ ID NO: 28), reverse: GGTCTCTTCCTCCTTGGATAAAGTC (SEQ ID NO: 29), probe: CCAGGCCAAGAAGGAGGAGATCATCA (SEQ ID NO: 30). Human specific VEGF forward: AAT GAC GAG GGC CTG GAG T (SEQ ID NO: 31), reverse: TTGATCCGCATAATCTGCATG (SEQ ID NO: 32), probe: TGTGCCCACTGAGGAGTCCAACATCA (SEQ ID NO: 33).
(§1) Recombinant human MCP-1, MIP-1α, MIP-1β, MIP-2, bFGF, VEGF, GM-CSF, G-CSF, SDF-1α, M-CSF, Erythropoietin (EPO) and TNFα were purchased from R&D Systems (Minneapolis, Minn.). Recombinant human IL-8, IFNγ, Bv8 (Prokineticin-2), IL-4, IL-10, IL-13, TGF-β were from PeproTech Inc. (Rocky Hill, N.J.). SCF (Stem Cell factor) was from Invitrogen Biosource (Carlsbad, Calif.). In some cases, G-CSF from Amgen (Neupogen/Filgrastim) was used. All cytokines were used at 10 ng/ml. Freshly purified cells were washed and re-suspended in HBSS media containing 0.2% BSA (low endotoxin, Serologicals Corp. Norcross, Ga.). Two million cells were incubated in 24-well plates with various cytokines and chemokines for 4 hr at 37° C. in a 5% CO2 incubator. Cells were then transferred into eppendorf tubes, centrifuged and lysed with RNA lysis buffer (Qiagen, Valencia, Calif.). Bv8 expression was assessed by Taqman with RPL19 (Ribosomal Protein L19) as the internal control gene.

[4] = system: PKR2/EG-VEGFR2 expression; experiment: Regulation of PKR2/EG-VEGFR2 expression in human bone marrow cells and neutrophils; assay type: cell-based
From the text: Taqman reagents for human PKR1/EG-VEGFR1 and PKR2/EG-VEGFR2 were obtained from Applied Biosystems.
as §1

[5] = system: Bv8 expression; experiment: Bv8 expression in human leukemia cell lines; assay type: cell-based
Protocol: U937, HL-60, THP-1, Hel 92.1.7, KG-1, K562, Jurkat cells were obtained from the ATCC® (Manassas, Va.). Most cells were grown in 10% FBS-containing RPMI. KG-1 cells were grown in 20% FBS-containing Iscove's modified Dulbecco's medium. For THP-1 cells, 10% FBS-containing RPMI was used with Sodium Pyruvate, HEPES and β-mercaptoethanol. For regulation studies, 1 million cells with viability higher than 95% were used. Regulation studies were performed under both normoxia and hypoxia conditions for 4 hr in 1 ml HBSS media containing 0.2% BSA.

[6] = system: TIB42-TAEC cells; experiment: In vitro tube formation of tumor-associated endothelial cells; assay type: cell-based, mouse; conditions: Bv8 200 ng/ml, VEGF-A 100 ng/ml, 36 hours
Protocol: Tumor associated endothelial cells (TAECs) were isolated using a magnetic beads sorting system (Miltenyi Biotech), essentially as previously described (Hida et al., Cancer Res 64:8249-8255 (2004)). Briefly, TIB42 mouse lymphoma cells were injected into the dorsal lateral flanks of female beige nude mice. When tumors reached a diameter of […], they were excised, minced and then digested with collagenase II (Worthington Biochemical Corporation). Cell suspensions were than filtered using 100 μm to 40 μm meshes. CD31^+ cells were finally sorted using a FITC-CD31 antibody (BD Biosciences) according to the manufacturer's instructions. CD31+ cells were seeded in gelatin coated plates in the presence of EGM-2MV media (Cambrex). After 24 hs in culture CD31+ non-adherent cells were removed by washing several times with PBS.
For in vitro tube formation, TIB42-TAEC cells (passages 6-8) were starved for 5 hs in serum free medium. After this, cells were collected and resuspended in serum free medium supplemented with 5% BSA and treated with VEGF-A (100 ng/ml), Bv8 (200 ng/ml) or no addition (control). For specificity tests, Bv8, was incubated in the presence of anti-Bv8 Mabs (10 μg/ml). 5×10^5 cells were seeded in each well of a 24 well pre-coated with Matrigel™ (BD Biosciences) and tube formation was evaluated after 36 hours.

[7] = target: T1, PKR1/EG-VEGFR1 (Homo sapiens, UniProt Q8TCW9); experiment: Bv8 bioactivity assay, GeneBLAzer NFAT-CHO cells transfected with PKR1/EG-VEGFR1; assay type: cell-based; conditions: Bv8 0.2-200 ng/ml; VEGF-A up to 200 ng/ml
T1 construct: host or cells: GeneBLAzer NFAT-CHO cells
T1 sequence (Q8TCW9 whole entry): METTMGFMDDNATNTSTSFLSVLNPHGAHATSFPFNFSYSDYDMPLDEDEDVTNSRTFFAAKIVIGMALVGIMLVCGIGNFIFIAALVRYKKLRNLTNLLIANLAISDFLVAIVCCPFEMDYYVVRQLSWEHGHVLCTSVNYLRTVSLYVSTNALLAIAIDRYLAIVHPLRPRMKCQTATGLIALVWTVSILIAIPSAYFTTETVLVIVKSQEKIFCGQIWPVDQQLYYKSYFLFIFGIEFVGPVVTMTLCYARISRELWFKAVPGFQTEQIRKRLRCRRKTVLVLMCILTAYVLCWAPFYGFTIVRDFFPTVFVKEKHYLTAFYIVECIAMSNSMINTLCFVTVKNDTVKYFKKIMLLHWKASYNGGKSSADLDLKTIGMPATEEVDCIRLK
Protocol: The GeneBLAzer® NFAT-CHO cells were obtained from Invitrogen Corporation (Carlsbad, Calif.). Cells were stably transfected with PKR1/EG-VEGFR1 and grown in DMEM (high glucose) containing 10% dialysed serum, 0.1 mM NEAA, 2 mM GlutaMax™ (Gibco), 1 mM sodium pyruvate, 10 μg/ml Zeocin, 500 μg/ml hygromycin. Cells were plated into 96-well Viewplate (Packard) with 2.5×10^4 in […] in 1% DMEM overnight at 5% CO2, 37° C. On the following day, cells were treated with various column fractions that were concentrated with Microcon Centrifugal Filter Devices (Ultracel YM-3) from Millipore. 0.2-0.02 ng/ml hBv8 (Peprotech Inc.) prepared in 1% DMEM was used as a positive control. One hour later, media was removed and replaced with […] Hank's solution containing 0.1% BSA and 6× loading buffer containing 1 mM CCF4 (Invitrogen Corporation). Plates were incubated for 1.5 hr at room temperature in the dark and read on Wallac plate reader at excitation wavelength of 410 nm and emission wavelength of 450/520 nm. Negative controls were cells with no ligand added and control media alone. CHO cells were stimulated with recombinant human Bv8 or pooled fractions for 1 hr before adding the β-lactamase substrate CCF4. To assess the specificity of the column fractions, anti-Bv8 antibodies 2B9 and 3F1 were added at […].

[8] = system: p44/42 MAPK; experiment: MAPK phosphorylation in TAECs (Western blot); assay type: cell-based, mouse
Protocol: TIB42-TAEC cells were starved for 6 hr in basal media supplemented with 0.5% BSA. Cells were then stimulated with human recombinant Bv8 (200 ng/ml; PeproTech), Complete Media (CM), VEGF (100 ng/ml; PeproTech) or BSA (0.5%). Cell extracts were collected at the indicated time-points. Western blot analysis of the extracts from TIB42-TAEC cells was performed using PhosphoPlus p44/42 MAPK™ antibody kit (Cell signaling).

“SDF-1: recombinant mouse SDF-1 (R&D Systems)” was tested. Which “up-regulation of Bv8 in unsorted BMMNCs” value [1] did it give?
The value was “did not show any significant stimulation”.

Which results are given for SDF-1α?
concentration required to stimulate neutrophil migration [2]: 20 nM; Bv8 expression in monocytes and lymphocytes [3]: significant stimulatory effect only on monocytes

What does the source list for “GM-CSF: recombinant mouse or human granulocyte-macrophage-CSF (R&D Systems)”?
regulation of PKR2/EG-VEGFR2 in human bone marrow [4]: regulate PKR2/EG-VEGFR2 to a significant level; up-regulation of PKR2/EG-VEGFR2 expression in human neutrophils ([4]; 4 hr incubation, average): 4 fold; effect on Bv8 expression ([1]; BMMNCs and sorted subsets (FIG. 1 c&d)): no effect; induction of Bv8 expression in human neutrophils and whole bone marrow cells [3]: ~2.5 fold; inhibition of Bv8 expression in human monocytes ([3]; 4 hr treatment): about 75%; Bv8 expression in HL-60 [5]: Neither G-CSF nor GM-CSF affected Bv8 expression; induction of Bv8 expression in leukemia cell lines ([5]; any of the cell lines tested): no significant induction

With IL-1β: cytokine interleukin-1β as the molecule, how does the “induction of Bv8 expression in human neutrophils and whole bone marrow cells” value [3] read?
Its value is “no stimulatory effect”.

How did the “up-regulation of Bv8 in unsorted BMMNCs” value [1] turn out when IL-6: cytokine interleukin-6 was run?
Its value is “did not show any significant stimulation”.

And the “induction of Bv8 expression in human neutrophils and whole bone marrow cells” value [3]?
The value was “no stimulatory effect”.

For “VEGF-A: recombinant vascular endothelial growth factor-A”, which “tube formation in Matrigel” value [6] is on record?
The value was “formed tubes”.

And the “stimulation of PKR1/EG-VEGFR1 transfected CHO cells” value [7]?
The value was “did not elicit any response”.

What about the “effect on neutrophil migration” value [2] of the same molecule?
Its value is “did not show any effect”.

What about the “MAP kinase phosphorylation in TAECs” value [8] of the same molecule?
The value was “strong induction of MAP kinase phosphorylation”.

How did the “induction of Bv8 expression in human neutrophils and whole bone marrow cells” value [3] turn out when “SCF: Stem Cell factor (Invitrogen Biosource)” was run?
The value was “no effect”.

How did the “effect on neutrophil migration” value [2] turn out when “MCP-1: recombinant human MCP-1 (R&D Systems)” was run?
Its value is “did not show any effect”.

For “IL-8: recombinant human IL-8 (PeproTech)”, which “concentration required to stimulate neutrophil migration” value [2] is on record?
Its value is 20 nM.

B1: M-CSF: recombinant human M-CSF (R&D Systems) (protein, UniProt P09603 33-554, looked up)
Macrophage colony-stimulating …: EEVSEYCSHMIGSGHLQSLQRLIDSQMETSCQITFEFVDQEQLKDPVCYLKKAFLLVQDIMEDTMRFRDNTPNAIAIVQLQELSLRLKSCFTKDYEEHDKACVRTFYETPLQLLEKVKNVFNETKNLLDKDWNIFSKNCNNSFAECSSQDVVTKPDCNCLYPKAIPSSDPASVSPHQPLAPSMAPVAGLTWEDSEGTEGSSLLPGEQPLHTVDPGSAKQRPPRSTCQSFEPPETPVVKDSTIGGSPQPRPSVGAFNPGMEDILDSAMGTNWVPEEASGEASEIPVPQGTELSPSRPGGGSMQTEPARPSNFLSASSPLPASAKGQQPADVTGTALPRVGPVRPTGQDWNHTPQKTDHPSALLRDPPEPGSPRISSLRPQGLSNPSTLSAQPQLSRSHSSGSVLPLGELEGRRSTRDRRSPAEPEGGPASEGAARPLPRFNSVPLTDTGHERQSEGSFSPQLQESVFHLLVPSVILVLLAVGGLLFYRWRRRSHQEPQRADSPLEQPEGSPLTQDDRQVELPV
How did the “induction of Bv8 expression in human neutrophils and whole bone marrow cells” value [3] turn out when B1 was run?
Its value is “no effect”.

B2: IL-10: recombinant human IL-10 (PeproTech) (protein, UniProt P22301 19-178, looked up)
Interleukin-10: SPGQGTQSENSCTHFPGNLPNMLRDLRDAFSRVKTFFQMKDQLDNLLLKESLLEDFKGYLGCQALSEMIQFYLEEVMPQAENQDPDIKAHVNSLGENLKTLRLRLRRCHRFLPCENKSKAVEQVKNAFNKLQEKGIYKAMSEFDIFINYIEAYMTMKIRN
With B2 as the molecule, how does the “Bv8 expression in monocytes and lymphocytes” value [3] read?
Its value is “up-regulated”.
